Experimental data as given in patent publication US12509446B2, “FYN and VEGFR2 kinase inhibitors” (ROTTAPHARM BIOTECH S.R.L., priority 2019, dated 2025).
pIC50: −log10 of the molar value. Like-named read-outs stand apart in the source and are kept apart here.

What was measured:
AurA = AurA (Homo sapiens (Human), UniProt O14965); experiment: Kinase selectivity (Eurofins Cerep), AurA; format: biochemical; conditions: maximal concentration tested 10 μM
Method: The assays were performed in Eurofins Cerep (France). The concentration range of the compound under investigation was from 10^−9 M up to 10^−5 M final concentration.

ADAMTS-5 = experiment: Gene expression in rat articular chondrocytes under IL-1β stimulation, ADAMTS-5; format: cell-based; conditions: Rattus norvegicus, Chondrocyte; 6 h incubation
Procedure, shortened: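 Cells are first synchronized in low-supplement medium (DMEM GlutaMAX I 0.4%). They are then exposed together to test compound and 2 ng/ml cytokine. After 6 h, IL-1β and ADAMTS-5 mRNA is quantified, and after 24 h MMP3 and MMP13 mRNA, all by TaqMan PCR against 18S.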

NF-kB = experiment: Gene reporter (GR) assay, NF-kB activation after TNFα in JB6 Cl 41-5a (P+) cells; format: cell-based, murine; conditions: TNFα 2 ng/ml, non toxic concentrations, read-out: Gene reporter (GR) inhibition IC50
Procedure, shortened: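 Murine JB6 Cl 41-5a (P+) cells stably carrying an NF-kB-RE luc2P reporter were pre-treated with compound for 1 h, then stimulated with 2 ng/ml TNFα for 4 h. Luciferase read-out with a paired viability read; quadruplicates.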

[1] = Pharmacokinetics after administration into the knee joint of rats; format: in vivo; conditions: suspension into the knee joint

Chain of AurA (O14965 whole entry): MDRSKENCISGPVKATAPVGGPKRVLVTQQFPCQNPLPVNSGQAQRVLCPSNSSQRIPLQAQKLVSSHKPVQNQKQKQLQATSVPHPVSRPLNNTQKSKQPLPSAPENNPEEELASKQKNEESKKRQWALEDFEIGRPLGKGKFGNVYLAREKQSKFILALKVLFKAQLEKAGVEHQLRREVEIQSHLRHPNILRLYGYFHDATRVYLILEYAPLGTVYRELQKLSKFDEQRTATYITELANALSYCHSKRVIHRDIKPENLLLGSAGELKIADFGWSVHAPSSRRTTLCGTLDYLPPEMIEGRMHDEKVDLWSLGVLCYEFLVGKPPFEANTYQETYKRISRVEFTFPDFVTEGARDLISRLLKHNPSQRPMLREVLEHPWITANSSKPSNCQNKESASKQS

Work on `Cc1ccc(NC(=O)c2cccc(C(F)(F)F)c2)cc1CCc1cc(Nc2cnccn2)[nH]n1` [Compound 3, N-(4-methyl-3-(2-(5-(pyrazin-2-ylamino)-1H-pyrazol-3-yl)ethyl)phenyl)-3-(trifluoromethyl)benzamide] yielded a pIC50 (AurA) of under 5.00, a pIC50 (ADAMTS-5) of 7.47 and a pIC50 (NF-kB; Mus musculus, JB6 Cl 41-5a) of over 6.60. For the same compound, the pIC50 (NF-kB) was 6.63 and the “Permanence in the synovial fluid and articular tissues (cartilage and synovial fat)” value [1] was “at least 14 days”.
